# Data reported in patent US20250346643A1, “TROPOMYOSIN KINASE RECEPTOR (TRK) LIGANDS AS THERAPEUTICS TO SUPPORT LIVER REGENERATION” (Vanderbilt University, priority 2024, published 2025).
# Test system: CCND1 and PCNA
# Assay: Immunoblotting of HDOs for CCND1 and PCNA
# Assay type: cell-based, human
# Details: NTF3
# Method: Human ductal organoids. The normal human liver tissue was obtained through the Cooperative Human Tissue Network (CHTN) at Vanderbilt University Medical Center. The liver was cut into very small pieces in liver digestion medium (Gibco, Waltham, MA; 17703-034). The cell suspension was filtered through a 100-μm cell strainer. The flow through was then centrifuged for 2 min at 100 g, 4° C., and the cell pellet resuspended in ice-cold DMEM (Gibco, Waltham, MA; 11885-084, supplemented by 5% FBS) and centrifuged for 2 min at 300 g. The cell pellet was gently resuspended in Matrigel® (Corning, Corning, NY; 356231) and a […] dome plated in a 24-well plate. The plate was incubated for 10-15 min at 37° C. […]
# Immunoblotting. […] Protein concentration of supernatants was determined by Direct Detect Spectrophotometer (MilliporeSigma, Burlington, MA). […] The protein concentration of supernatants was determined by a Direct Detect® spectrophotometer (MilliporeSigma, Burlington, MA). For immunoblot analysis, 10 to 50 μg of protein diluted in […] sample buffer (Invitrogen, Waltham, MA) were analyzed per SDS-polyacrylamide gel electrophoresis (NuPAGE™, Invitrogen, Waltham, MA) using Mops buffer or MES buffer (Invitrogen, Waltham, MA). […] Semi-quantitative band densitometry was performed using ImageJ software (version 1.53).
substance,measurement,value
"NTF3: neurotrophin-3, recombinant protein; HSC-derived hepatocyte mitogen, ligand of TRKA, TRKB, TRKC",CCND1 and PCNA (immunoblotting),induced CCND1 and PCNA
